Experimental data from patent US6984521B2, “HEK293 cell line for activity studies and HTS system of α1G T-type Ca2+ channel” (Korea Institute of Science and Technology, priority 2003, dated 2006).

Legend:
Kir2.1 = target: T1, Kir2.1 (Homo sapiens, UniProt P63252); assay: Kir2.1 channel current, whole-cell patch-clamp; format: cell-based; settings: Kir2.1+α1G HEK293 cell; -140 to -60 mV step pulse; 1-100 μM Ba2+, 5-500 μM Cs+
T1 construct: expressed in transfected cells; host or cells: HEK293 cells stably expressing α1G T-type calcium channel, transduced with Kir2.1-pMSCVpuro retrovirus (Kir2.1+α1G HEK293)
T1 sequence (P63252 1-427): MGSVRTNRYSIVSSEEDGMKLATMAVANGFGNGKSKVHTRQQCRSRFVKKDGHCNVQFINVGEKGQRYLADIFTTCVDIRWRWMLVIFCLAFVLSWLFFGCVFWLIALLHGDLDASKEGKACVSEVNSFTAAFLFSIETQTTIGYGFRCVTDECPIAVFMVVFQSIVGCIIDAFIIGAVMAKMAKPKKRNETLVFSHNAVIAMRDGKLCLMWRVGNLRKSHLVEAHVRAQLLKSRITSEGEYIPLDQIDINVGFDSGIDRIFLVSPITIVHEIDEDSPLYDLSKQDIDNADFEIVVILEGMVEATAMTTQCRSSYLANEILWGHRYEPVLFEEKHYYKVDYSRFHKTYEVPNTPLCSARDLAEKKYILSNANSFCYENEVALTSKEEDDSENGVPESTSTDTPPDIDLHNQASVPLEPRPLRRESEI
Procedure: Further, the current of IRK-type potassium channel, Kir2.1 was also determined in a single cell level by the whole-cell patch-clamp method. An extracellular solution for determining IRK-type potassium channel activity comprised NaCl 135 mM, KCl 5.4 mM, CaCl2 1.8 mM, MgCl2 1 mM, HEPES 5 mM and glucose 10 mM (pH 7.4). An intracellular solution comprised D-gluconic acid (potassium salt form) 140 mM, MgCl2 2 mM, EGTA 1 mM, HEPES 5 mM and Na2ATP 1 mM (pH 7.4).
After the cell membrane voltage was fixed as about −60 mV in a whole-cell recording mode, −140 to −60 mV of 200 ms step pulse was applied to determine the inward current induced by potassium inwardly-rectifying channel activation of HEK293 cell.
Furthermore, the characteristics of Kir2.1 channel were analyzed by comparing with IC50 value for Ba^2+ and Cs^+, the conventionally known IRK-type potassium channel inhibitor. For this, Kir2.1 channel activity determination method, as discussed above, was used and the inhibition by the known Kir2.1 inhibitor, Ba^2+ and Cs^+, was observed.
FIG. 4e and FIG. 4f are graphs showing the maximum current that occurred at each voltage when 1–100 μM Ba^2+ and 5–500 μM Cs^+ known as Kir2.1 inhibitor were administered to Kir2.1+α1G HEK293 cell under −140 to −60 mV step pulse.

α1G HEK293 cell = assay: Intracellular calcium with fura-2/AM, control cell; format: cell-based, human; settings: 70 mM KCl
Procedure: (§1) The calcium concentration in the cell was determined by using fura-2/AM as a fluorescent Ca^2+ label. The cells were primarily incubated with 5 μM fura-2/AM and 0.001% Pluronic F-127 in HEPES buffer solution (150 mM NaCl, 5 mM KCl, 1 mM MgCl2, 2 mM CaCl2, 10 mM HEPES, 10 mM glucose, pH 7.4) at a room temperature for about 40 to 60 minutes and then washed several times with HEPES buffer solution. After stablilzing the cells for about 10 minutes, the cells were selectively exposed to 340 nm and 380 nm by using an inverted microscope. Thereafter, the emitter fluorescence light that was entered through 515 nm long-pass filter was passed through a cooled CCD […]. The light was converted into the intracellular calcium concentration by digital fluorescence analyzer to determine the calcium concentration.

Kir2.1+α1G HEK293 cell = assay: Intracellular calcium with fura-2/AM, cell line of the invention; format: cell-based, human; settings: 70 mM KCl
Procedure: as §1

[1] = target: T2, α1G T-type calcium channel (Rattus norvegicus, UniProt O54898); assay: T-type calcium channel current, whole-cell patch-clamp; format: cell-based; settings: activated at about -30 mV; Ni2+ 1 μM to 1 mM, mibefradil 0.1 to 10 μM
T2 construct: expressed in transfected cells; host or cells: HEK293 stably expressing α1G (α1G HEK293, control) and Kir2.1+α1G HEK293
T2 sequence (O54898 whole entry): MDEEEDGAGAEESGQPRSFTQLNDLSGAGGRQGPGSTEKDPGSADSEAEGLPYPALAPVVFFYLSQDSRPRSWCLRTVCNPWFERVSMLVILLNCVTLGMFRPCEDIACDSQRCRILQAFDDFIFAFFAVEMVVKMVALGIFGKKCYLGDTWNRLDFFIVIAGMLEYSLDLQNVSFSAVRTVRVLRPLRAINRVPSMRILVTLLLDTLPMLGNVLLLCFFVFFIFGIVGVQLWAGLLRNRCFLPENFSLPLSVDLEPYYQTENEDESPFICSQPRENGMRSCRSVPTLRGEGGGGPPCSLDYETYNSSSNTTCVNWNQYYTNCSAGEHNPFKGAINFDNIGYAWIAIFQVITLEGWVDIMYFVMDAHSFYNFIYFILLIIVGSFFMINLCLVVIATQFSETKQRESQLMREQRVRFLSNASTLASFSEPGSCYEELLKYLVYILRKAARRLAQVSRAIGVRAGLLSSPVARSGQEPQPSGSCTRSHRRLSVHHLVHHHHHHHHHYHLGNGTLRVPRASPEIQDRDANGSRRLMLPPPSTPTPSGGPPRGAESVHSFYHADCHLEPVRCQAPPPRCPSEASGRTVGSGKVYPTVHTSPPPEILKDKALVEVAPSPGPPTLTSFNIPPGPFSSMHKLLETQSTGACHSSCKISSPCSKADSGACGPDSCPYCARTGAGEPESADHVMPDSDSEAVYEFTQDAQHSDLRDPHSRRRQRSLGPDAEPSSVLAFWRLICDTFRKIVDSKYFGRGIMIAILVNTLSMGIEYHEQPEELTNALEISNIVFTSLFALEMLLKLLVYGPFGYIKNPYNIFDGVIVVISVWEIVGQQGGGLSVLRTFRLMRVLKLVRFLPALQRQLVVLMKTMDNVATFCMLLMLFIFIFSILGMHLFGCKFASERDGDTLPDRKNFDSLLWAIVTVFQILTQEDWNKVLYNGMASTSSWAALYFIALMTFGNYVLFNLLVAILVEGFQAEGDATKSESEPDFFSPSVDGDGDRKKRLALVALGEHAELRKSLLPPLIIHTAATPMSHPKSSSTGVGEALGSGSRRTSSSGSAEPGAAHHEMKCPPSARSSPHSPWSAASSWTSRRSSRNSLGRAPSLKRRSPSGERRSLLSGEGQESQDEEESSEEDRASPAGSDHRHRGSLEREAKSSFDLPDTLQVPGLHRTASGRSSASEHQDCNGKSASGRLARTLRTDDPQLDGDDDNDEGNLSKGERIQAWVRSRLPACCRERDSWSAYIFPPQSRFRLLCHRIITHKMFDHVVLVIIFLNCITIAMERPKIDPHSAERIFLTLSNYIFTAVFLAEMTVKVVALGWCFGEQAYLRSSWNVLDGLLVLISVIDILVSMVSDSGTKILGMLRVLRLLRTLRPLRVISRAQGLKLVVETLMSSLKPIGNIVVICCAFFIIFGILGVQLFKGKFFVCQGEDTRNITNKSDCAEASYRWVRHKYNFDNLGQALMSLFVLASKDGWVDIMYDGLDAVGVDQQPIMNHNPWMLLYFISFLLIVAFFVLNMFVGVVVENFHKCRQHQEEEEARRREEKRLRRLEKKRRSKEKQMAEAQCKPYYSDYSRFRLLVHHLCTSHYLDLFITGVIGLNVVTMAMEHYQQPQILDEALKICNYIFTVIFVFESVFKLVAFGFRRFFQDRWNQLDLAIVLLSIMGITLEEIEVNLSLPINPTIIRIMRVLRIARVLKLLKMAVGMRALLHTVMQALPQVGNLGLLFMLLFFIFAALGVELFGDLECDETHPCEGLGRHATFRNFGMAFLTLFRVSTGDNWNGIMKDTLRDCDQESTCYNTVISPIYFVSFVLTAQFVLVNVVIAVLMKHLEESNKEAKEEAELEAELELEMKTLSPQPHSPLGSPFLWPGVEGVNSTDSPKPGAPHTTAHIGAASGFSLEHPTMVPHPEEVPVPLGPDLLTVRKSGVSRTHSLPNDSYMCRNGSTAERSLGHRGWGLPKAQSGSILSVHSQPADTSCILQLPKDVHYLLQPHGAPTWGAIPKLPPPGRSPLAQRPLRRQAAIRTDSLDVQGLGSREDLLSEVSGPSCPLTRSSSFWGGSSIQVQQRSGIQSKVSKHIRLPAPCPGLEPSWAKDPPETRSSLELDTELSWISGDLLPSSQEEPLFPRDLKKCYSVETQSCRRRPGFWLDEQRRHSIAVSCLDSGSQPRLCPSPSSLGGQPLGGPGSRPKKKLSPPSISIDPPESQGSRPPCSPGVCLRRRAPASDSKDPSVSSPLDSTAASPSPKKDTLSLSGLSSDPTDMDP
Procedure: EPC-9 amplifier (HEKA, Germany) was used to determine the current of T-type calcium channel in a single cell level by electrophysiological whole-cell patch-clamp method. An extracellular solution for determining T-type calcium channel activity comprised NaCl 140 mM, CaCl2 2 mM and HEPES 10 mM (pH 7.4), whereas an intracellular solution comprised KCl 130 mM, HEPES 10 mM, EGTA 11 mM and MgATP 5 mM (pH 7.4).
The prepared intracellular solution was introduced into a microglass electrode of about 3–4 MΦ resistance. Then, the single cell was pricked with the electrode to fix the cell membrane voltage as about −100 mV in a whole-cell recording mode. Thereafter, the inward current was determined, in which the current was induced by T-type calcium channel activity when the hypopolarization was caused by about −30 mV (50 ms duration) approximately every 10 seconds.
Furthermore, the characteristics of the channel were analyzed by comparing with IC50 value for Ni^2+ and mibefradil, the conventionally known T-type calcium channel inhibitor. About 1 μM to 1 mM of Ni^2+ and about 0.1 to 10 μM of mibefradil were administered to the cell, respectively, according to the electrophysiological whole-cell patch-clamp method as described above, and then the inhibition (%) of the maximum of the inward current, caused through T-type calcium channel activated at or about −30 mV, was determined.

Compound | inhibition of Kir2.1 current (maximum current at each voltage) (Kir2.1) | IC50 for inhibition of inward current through T-type calcium channel, Kir2.1+α1G HEK293 cell compared with α1G HEK293 cell [1] | other results
[Ba+2] [Ba^2+] | inhibited in a concentration-dependent manner | – | –
[Cl-].[K+] [KCl] | – | – | calcium influx (α1G HEK293 cell): does not change calcium influx; calcium influx (Kir2.1+α1G HEK293 cell): calcium influx is induced
[Cs+] [Cs^+] | inhibited in a concentration-dependent manner | – | –
[Ni+2] [Ni^2+] | – | not significantly different | –
COCC(=O)O[C@]1(CCN(C)CCCc2nc3ccccc3[nH]2)CCc2cc(F)ccc2[C@@H]1C(C)C [mibefradil] | – | not significantly different | –
